Data reported in patent publication US20090233976A1, “Antimitotic Rhizoxin Deritivatives of Burkholderia Rhizoxina, Method for Producing Said Derivatives and Use Thereof” (priority 2005, published 2009).
In brackets after ≈: the same amount, converted by molar mass.

How the values were obtained:
L-929 mouse fibroblast = assay: antiproliferative test on L-929 mouse fibroblasts; type: cell-based; conditions: L929
Text: (§1) The inventive substances 1-4 show very strong antiproliferative and cytotoxic effects (e.g. for L-929 mouse fibroblast, K-562 human leukemia cells and HeLa human cervix carcinoma line) and an antifungal activity (e.g. against Glomerella cingulata, Penicillium notatum, Fusarium culmorum, Hamigera avellanea, Aspergillus fumigatus). (See Table 1.)
(§2) The examination of the antiproliferative and cytotoxic properties of the substances 1-4 has been performed via the method described in the literature (H. M. Dahse, B. Schlegel, U. Gräfe, Pharmazie 2001, 56, 489-491). The antifungal activity has been determined via the agar diffusion test. (See Table 2.)

[1] = cytotoxicity test on HeLa human cervix carcinoma line; type: cell-based; conditions: HeLa human cervix carcinoma cells, cytotoxic
Text: as §1, §2

[2] = tested on: K-562 human leukemia cells; assay: antiproliferative test on K-562 human leukemia cells; type: cell-based; conditions: K562
Text: as §1, §2

human cancer cell lines = conditions: a number of human cancer cell lines, particularly vincristin-resistent cells; cited from earlier work

Row | SMILES | GI50 (L-929 mouse fibroblast) | CC50 [1] | GI50 [2] | activity against human cancer cell lines (human cancer cell lines)
1 | COC(=O)C[C@@H]1C/C=C/C(=O)OC([C@H](C)[C@@H](OC)/C(C)=C/C=C/C(C)=C/c2coc(C)n2)C[C@H](O)C2(C)O[C@@H]2/C=C/[C@@H](C)[C@H](O)C1 (some centres unmarked) [Substance 3] | 50 ng/mL (≈ 77.9 nM) | < 0.03 ng/mL | < 0.03 ng/mL | –
2 | COC(=O)C[C@@H]1C/C=C/C(=O)OC([C@H](C)[C@@H](OC)/C(C)=C/C=C/C(C)=C\c2coc(C)n2)C[C@H](O)C2(C)O[C@@H]2/C=C/[C@@H](C)[C@H](O)C1 (some centres unmarked) [Substance 4] | 12 ng/mL (≈ 18.7 nM) | – | < 0.03 ng/mL | –
3 | CC(/C=C/C=C(\C)[C@H](O)[C@@H](C)C1C[C@H](O)C2(C)O[C@@H]2/C=C/[C@@H](C)[C@H](O)C[C@H](CC(=O)O)C/C=C/C(=O)O1)=C\c1coc(C)n1 (some centres unmarked) [Substance 1] | – | 90 ng/mL (≈ 147 nM) | 15 ng/mL (≈ 24.4 nM) | –
4 | COC(=O)C[C@@H]1C/C=C/C(=O)OC([C@H](C)[C@@H](O)/C(C)=C/C=C/C(C)=C/c2coc(C)n2)C[C@H](O)C2(C)O[C@@H]2/C=C/[C@@H](C)[C@H](O)C1 (some centres unmarked) [Substance 2] | 50 ng/mL (≈ 79.6 nM) | 0.28 ng/mL (≈ 0.446 nM) | 0.03 ng/mL (≈ 0.0478 nM) | –
5 | CO[C@@H](/C(C)=C/C=C/C(C)=C/c1coc(C)n1)[C@@H](C)[C@@H]1C[C@H](O)[C@@]2(C)O[C@@H]2/C=C/[C@@H](C)[C@H]2C[C@H](CC(=O)O2)C[C@@H]2O[C@H]2C(=O)O1 [Rhizoxin] | – | – | – | high activity
